“Also recorded” adds a separate entry of the source. No end group written: not given here.
How the values were obtained:
[1] = tested on: human pancreatic islets; assay: MTT cell survival assay in human pancreatic islets; format: cell-based; conditions: human islet cells, 1 nM to 100 nM
Procedure: The survival effect of UAG (1-14), UAG (1-18), UAG (1-5) and UAG (17-28), with respect to that of full length UAG (1-28), was assessed in human pancreatic islets by MTT. The peptides were tested in islet cells cultured in serum deprived medium, either alone or with IFN-γ/TNF-α/IL-1β (5 ng/ml each).
Human islets were obtained from pancreases of multiorgan donors as described (Ref. 4). Islet preparations with purity >70%, not suitable for transplantation, were provided by European Consortium for Islet Transplantation (ECIT) “Islets for Research Distribution Program,” Transplant Unit, Scientific Institute San Raffaele, Vita-Salute University, Milan. Islets (10,000) were cultured in CMRL (Invitrogen) with 10% FBS.
(§1) Cell survival was assessed by 3-[4,5-dimethylthiazol-2-yl]-2,5diphenyltetrazolium bromide (MTT) as described previously (Ref. 4). Cells were seeded on 96-well plates at a density of 5×10^3 cells/well. After treatments, cells were incubated with 1 mg/ml MTT for ≈1 h. The medium was aspirated, and the formazan product solubilized with 100 μl DMSO. Viability was assessed by spectrophotometry at 570 nm absorbance using a 96-well plate reader.

[2] = tested on: HIT-T15 β-cells; assay: Glucose-induced insulin secretion in HIT-T15 β-cells; format: cell-based, hamster; conditions: data not shown
Procedure: HIT-T15 cells were plated at density of 5×10^5 cells into 100-mm dishes and serum starved for 24 h before incubation for 1 h at 37° C. in HEPES-buffered Krebs-Ringer bicarbonate buffer (KRBH), containing 0.5% BSA with 1.25 mM glucose. The medium was changed and the cells were incubated again for 1 h in KRBH/0.5% BSA containing 1.25, 7.5 or 15 mM glucose. Following acid ethanol extraction of the hormone, secreted insulin was quantitated by a radioimmunoassay kit (Linco Research, Labodia, Yens, Switzerland) which recognizes human insulin and cross reacts with rat insulin.

[3] = tested on: UAG receptor on HIT-T15 pancreatic β-cells; assay: Competition with [125I-Tyr4]-UAG for binding sites on HIT-T15 membranes; set-up: species or system hamster
Procedure: (§2) The ability of the fragment UAG (6-13) to compete in a concentration-dependent manner with [^125I-Tyr^4]-UAG for HIT-T15 (FIG. 10A) and INS-1E (FIG. 10B) binding sites was assayed. As shown in FIGS. 10A and 10B, unlabelled UAG (1-28) and UAG (6-13) competed with a similar efficacy and in a concentration-dependent fashion with [^125I-Tyr^4]-UAG for such binding sites in both cell lines.
(§3) Membranes from hamster HIT-T15 and rat INS-1E pancreatic β-cells were prepared and assayed for the presence of [^125I-Tyr^4]-UAG binding. The ability of UAG fragments to compete with the radioligand for such binding sites has been evaluated as previously described (Ref. 4). Data are presented as mean±S.E.M. of three independent experiments.

[4] = tested on: UAG receptor on INS-1E pancreatic β-cells; assay: Competition with [125I-Tyr4]-UAG for binding sites on INS-1E membranes; set-up: species or system rat
Procedure: as §2, §3

[5] = tested on: hamster HIT-T15 β-cells; assay: MTT cell survival assay in HIT-T15 β-cells; format: cell-based; conditions: for increase of cell survival: serum-free conditions
Procedure: MTT experiments were also performed in hamster HIT-T15 β-cells, to test the survival effect of UAG (1-28) or its fragments UAG (1-14), UAG (1-18), UAG (1-5) and UAG (17-28) in serum deprived medium, either alone or with IFN-γ/TNF-α/IL-1β. As for the experiments performed on INS-1E β-cells, the peptides were tested at increasing concentrations, ranging from 0.1 nM to 100 nM.
The survival effect of UAG (6-13), UAG (8-13), UAG (8-12), UAG (8-11), UAG (9-12) and UAG (9-11) was assessed in cytokine-treated HIT-T15 β-cells.
The protective effects of peptides UAG (8-13) and UAG (8-12) were found similar to those of UAG (1-14) and UAG (1-18). A peptide made of the inverse sequence of UAG (1-14) and named UAG (14-1), was used as negative control for these experiments (FIG. 5A). […] These effects were however lower than those of UAG (6-13) (FIG. 5B).
UAG fragments with alanine (Ala) substitutions at different amino acid positions (6 to 13) were tested with regards to their survival effects in HIT-T15 hamster β-cells. The cells were cultured in serum deprived medium, either alone or with IFN-γ/TNF-α/IL-1β. The peptides were tested at the concentrations of 1 nM to 100 nM. […] Under treatment with cytokines, where cell survival was reduced by ≈18% with respect to serum starved conditions, all Ala substitutions, except those at positions 10 and 11, completely reversed cell death and brought the survival rate to levels that were even higher than those under serum-free conditions, at both 1 nM and 100 nM concentrations. These effects were similar to those elicited by the original peptide UAG (6-13) (FIG. 11B).
Particularly, the best effect was exerted by Gly 6-UAG (6-13), whereas the lowest was seen using AcSer 6-UAG (6-13), AcSer 6-(D)Pro 7-UAG (6-13) (FIG. 12B).
(§4) Hamster HIT-T15 insulin-secreting β-cells were obtained and cultured as described (Refs. 14, 4). INS-1E rat β-cells were kindly provided by Prof. Claes B. Wollheim (University Medical Center, Geneva, Switzerland) and cultured as described (Refs. 14, 4). Cell culture reagents were from Invitrogen (Milano, Italy). Cytokines were from Biosource (Invitrogen, Italy).
as §1

[6] = tested on: human pancreatic islets; assay: Insulin secretion in human pancreatic islets; format: cell-based; conditions: peptide 100 nM, glucose absent or 2 to 25 mM
Procedure: The effects of UAG (1-14) and UAG (1-18), both used at 100 nM, were investigated on insulin secretion in human islets. […] UAG (1-28) and Exendin-4 were used as positive controls (FIGS. 8C and 8D).

[7] = tested on: INS-1E rat β-cells; assay: MTT cell survival assay in INS-1E β-cells; format: cell-based; conditions: 0.1 nM to 100 nM
Procedure: The peptides were tested at increasing concentrations, ranging from 0.1 nM to 100 nM.
as §4, §1

[8] = tested on: ob/ob mice; assay: ob/ob mice, 4 weeks infusion by Alzet pump; format: in vivo, mouse
Procedure: Baseline tail vein plasma samples were collected from free-fed and 16 h fasted ob/ob mice 7 and 6 days before pump implantation into K2EDTA coated capillary tubes (Microvette CB300 K2E; Sarstedt, Germany). The animals were then separated into three groups with approximately equivalent weight ranges. Ten week old mice were anesthetized, and a filled Alzet 1004 pump was inserted, delivery portal first, into the peritoneal cavity. The musculoperitoneal and skin layers were then closed using interrupted sutures (Vicryl 5.0 FS-2 absorbable suture). Animals received pumps containing either saline, 10 mg/ml UAG, or 3.5 mg/mL UAG (6-13) (n=8 per group). Alzet 1004 pumps deliver […], and infused 30 μg of hUAG/animal/day (˜600 μg/kg/day) and 10 μg of UAG (6-13)/animal/day (˜200 μg/kg/day).
Blood samples (at 0900-1000) were obtained from fed and fasted animals at weeks 2 and 4 via the tail vein into EDTA Microvette tubes. Glucose levels in tail vein blood were measured directly using a glucometer. On the last day of treatment baseline (fasted) blood samples were taken.
For the experimental data illustrated in FIGS. 14A, 14B, 15 and 16, the animals were obtained from Charles River Laboratories (Maastricht, The Netherlands). Animals (B6.V-Lep^ob/J, Charles River Laboratories, Belgian colony) were received in our animal facilities at 8 weeks of age, and acclimatized in individual cages for 2 weeks before treatments began. They were maintained under standard 12:12 h light:dark conditions, 21° C., and were allowed free access to food and water. The animals were also handled daily to accustom them to the method used for blood collection. The peptides were dissolved in sterile, nonpyrogenic, 0.9% saline (Baxter BV, Utrecht, The Netherlands). D-glucose was obtained from Sigma-Aldrich Chemie BV (Zwijndrecht, The Netherlands), and was dissolved at 400 mg/ml in 0.9% saline. Alzet pumps (model 1004) were obtained from Charles River Laboratories (Maastricht, The Netherlands). Pumps were filled with 0.9% saline, UAG or UAG (6-13) solution under sterile conditions, and pre-incubated in 0.9% saline for at least 48 hours at 37° C. to initiate flow. Blood glucose levels were measured directly from tail vein incisions using a Freestyle mini glucometer and test strips (ART05214 Rev.A; Abbot, Amersfoort, The Netherlands). Plasma insulin levels were assayed by Ultra-sensitive mouse insulin ELISA (Cat. #10-1150-10; Mercodia, Sweden).

[9] = tested on: HIT-T15 β-cells; assay: Cytokine-induced apoptosis in HIT-T15 β-cells; format: cell-based, hamster
Procedure: HIT-T15 β-cells were cultured for 24 h in serum-free medium, either alone or with IFN-γ/TNF-α/IL-1β. In both cell lines, apoptosis increased under cytokine treatment, with respect to serum starvation alone. […] UAG (14-1), the inverse sequence of UAG (1-14), was used as negative control, whereas UAG (1-28), was used as positive control in each experiment.

[10] = tested on: STZ-induced diabetic rats; assay: Streptozotocin (STZ)-treated neonatal rats; conditions: for animal survival rate: day 9 after STZ
Procedure: Pregnant female Sprague-Dawley rats (n=10, day 14th-15th of pregnancy) were purchased from Harlan Srl (Italy), caged allowing free access to water and fed with a standard pellet rat diet. Natural birth occurred 6-7 days later. […] Dams were randomly assigned to the five groups and pups from the same litter were assigned to the same group. […] Pups were left with their mothers. All neonates were tested on day 2 for glycosuria using Accu-chek compact plus (Roche). Only those animals that were glycosuric at day 2 after birth were included in the STZ model group. […] Animals were killed at day 70 after birth by decapitation. Blood samples were collected after decapitation and immediately centrifuged at 20,000×g for 2 min at 4° C., and stored at −20° C. until assayed.
After excision, pancreases were removed and weighed. For insulin content determination, pancreases (35-50 mg) were homogenized and centrifuged in 5 ml acid-ethanol (0.15 mol/l HCl in 75% [vol/vol]ethanol) at 1,000 g for 20 min; the supernatants were stored at −80° C. For immunohistochemistry, additional pancreases were fixed in 4% paraformaldehyde fixative for 24 h and embedded in paraffin.
Plasma glucose levels were determined using a glucose analyzer. Insulin was measured from pancreases or from plasma by RIA as previously described (Ref. 15).

[11] = serum deprived medium with IFN-γ/TNF-α/IL-1β

| Substance | binding to the UAG receptor [3] | binding to the UAG receptor [4] | cell survival (MTT) ([5]; serum deprived medium alone) | cell survival (MTT) [5, 11] | insulin secretion [6] | cell survival (MTT) ([7]; serum deprived medium alone) | cell survival (MTT) [7, 11] | further results |
| --- | --- | --- | --- | --- | --- | --- | --- | --- |
| GSSFLSPEHQRVQQ [UAG (1-14)] | recognized and bound | recognized and bound | significantly increased cell viability; also recorded: potently increased cell survival | significantly increased cell viability; also recorded: potently increased cell survival | significantly increased insulin secretion both in the absence and presence of glucose | potently increased cell survival | potently increased cell survival | cell survival (MTT) ([1]; serum deprived medium with IFN-γ/TNF-α/IL-1β (5 ng/ml each)): prevented cell death at 100 nM; glucose-induced insulin secretion [2]: significantly increased glucose-induced insulin secretion |
| GSSFLSPEHQRVQQRKES [UAG (1-18)] |  |  | significantly increased cell viability; also recorded: potently increased cell survival | significantly increased cell viability; also recorded: potently increased cell survival | significant effect with 7.5 mM glucose | potently increased cell survival | potently increased cell survival | cell survival (MTT) ([1]; serum deprived medium alone): significantly increased cell survival at 1 nM and 10 nM |
| SPEHQRVQ [UAG (6-13), Ser-Pro-Glu-His-Gln-Arg-Val-Gln] | highest binding activity | highest binding activity |  | potently inhibited cytokine-induced cell death; also recorded: strongly effective in increasing survival |  |  |  | gonadal fat weight over the period of treatment ([8]; mouse, in vivo): did not cause an increase in gonadal fat weight; decrease of gonadal fat pad weight relative to saline treated controls ([8]; period of treatment (4 weeks), trend p<0.06): approximately 7%; suppression of fasting glucose concentrations from saline treated controls ([8]; week 4): This effect remained at week 4; fed plasma glucose levels relative to saline controls ([8]; weeks 2 and 4, no statistically significant effects (RM-ANOVA)): consistent suppressive effect; increase of cell survival ([5]; 1 nM): ≈ 18%; increase of cell survival ([5]; 100 nM): ≈ 30%; antiapoptotic effect (cytokine-induced apoptosis) ([9]; 24 h serum-free medium with IFN-γ/TNF-α/IL-1β, 1, 10, 100 nM): significantly reduced cytokine-induced apoptosis; also recorded: strongest antiapoptotic effect; cell number and morphology with respect to cytokine condition ([9]; cytokine-treated, data not shown): increased the number of cells, induced cell enlargement and small islets formation; animal survival rate ([10]; 30 nmol/l (STZ alone ≈52%)): ≈ 71%; animal survival rate ([10]; 100 nmol/l (STZ alone ≈52%)): 89%; reduction of plasma glucose vs. STZ group ([10]; day 70, 30 nmol/l): 31%; reduction of plasma glucose vs. STZ group ([10]; day 70, 100 nmol/l): 14%; plasma insulin levels ([10]; day 70, STZ-treated rats, UAG (6-13) at both concentrations): increasing insulin levels |
| exendin-4 [reference compound] |  |  |  |  | significantly increased insulin secretion both in the absence and presence of glucose |  |  |  |
